Assays:
[1] = system: VCaP cells; assay: Cellular growth inhibition assay for VCaP cells, CellTiter-Glo; assay type: cell-based, human; conditions: Homo sapiens, VCaP, 72 h, 72 hours treatment, CellTiter-Glo 2.0
Method in brief: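 GI50 values come from four-parameter curve fits of luminescence data normalized to a zero baseline. Compound, in medium with 0.5% DMSO, was added one day after plating and left for 72 h before CellTiter-Glo 2.0 addition.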

[2] = system: T47D cells; assay: Cellular growth inhibition assay for T47D cells, CellTiter-Glo; assay type: cell-based, human; conditions: Homo sapiens, T47D, 72 h, 72 hours treatment, CellTiter-Glo 2.0 cell viability
Method in brief: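 Growth inhibition as GI50, fitted with four parameters to CellTiter-Glo luminescence after 72 h of compound exposure (0.5% DMSO). Cells were T47D, grown in insulin-supplemented (0.2 units/mL) DMEM with 10% FBS and treated one day post-seeding.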

[3] = system: T-Rex 293 cell line SC3 cells having increased expression of androgen receptor protein due to exposure to doxycycline; assay: Cellular growth inhibition, T-Rex 293 SC3 cells with doxycycline (androgen receptor induced), CellTiter-Glo; assay type: cell-based; conditions: 72 h, T-Rex 293 SC3 cells with 10 ng/mL doxycycline (increased androgen receptor expression)
Method in brief: (§1)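 Luminescence read-out (CellTiter-Glo 2.0) after 72 h compound exposure; GI50 by four-parameter nonlinear regression, baseline set at zero luminescence. SC3 cells, a doxycycline-inducible wild-type AR clone of T-Rex 293, were cultured ±10 ng/mL doxycycline in charcoal-dextran FBS medium.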

[4] = system: T-Rex 293 cell line SC3 cells lacking increased expression of androgen receptor protein; assay: Cellular growth inhibition, T-Rex 293 SC3 cells without doxycycline, CellTiter-Glo; assay type: cell-based; conditions: 72 h, T-Rex 293 SC3 cells not exposed to doxycycline, CellTiter-Glo 2.0
Method in brief: as §1

SMILES | GI50 [1] | GI50 [2] | GI50 [3] | GI50 [4]
Cc1sc2c(c1C)C(c1ccc(CCCOC3CCN(c4ncc(C(=O)N[C@H]5C(C)(C)[C@H](Oc6ccc(C#N)c(Cl)c6)C5(C)C)cn4)CC3)cc1)=C[C@H](Cc1cccnc1)c1nnc(C)n1-2 [Compound I-246] | < 500 nM | < 500 nM | < 500 nM | > 3000 nM
Cc1sc2c(c1C)C(c1ccc(C3CN(C4CCN(c5ncc(C(=O)N[C@H]6C(C)(C)[C@H](Oc7ccc(C#N)c(Cl)c7)C6(C)C)cn5)CC4)C3)cc1)=N[C@@H](Cc1ncco1)c1nnc(C)n1-2 [Compound I-247] | < 500 nM | < 500 nM | < 500 nM | < 500 nM
Cc1sc2c(c1C)C(c1ccc(CC[C@H]3CC[C@@]4(CCCN(c5ncc(C(=O)N[C@H]6C(C)(C)[C@H](Oc7ccc(C#N)c(Cl)c7)C6(C)C)cn5)C4)C3)cc1)=N[C@@H](Cc1ncco1)c1nnc(C)n1-2 [Compound I-248] | > 3000 nM | > 3000 nM | > 3000 nM | > 3000 nM
Cc1sc2c(c1C)C(c1ccc(CC[C@@H]3CC[C@@]4(CCCN(c5ncc(C(=O)N[C@H]6C(C)(C)[C@H](Oc7ccc(C#N)c(Cl)c7)C6(C)C)cn5)C4)C3)cc1)=N[C@@H](Cc1ncco1)c1nnc(C)n1-2 [Compound I-249] | > 3000 nM | > 3000 nM | > 3000 nM | > 3000 nM
Cc1sc2c(c1C)C(c1ccc(CC[C@@H]3CC[C@]4(CCCN(c5ncc(C(=O)N[C@H]6C(C)(C)[C@H](Oc7ccc(C#N)c(Cl)c7)C6(C)C)cn5)C4)C3)cc1)=N[C@@H](Cc1ncco1)c1nnc(C)n1-2 [Compound I-250] | < 500 nM | < 500 nM | < 500 nM | > 3000 nM
Cc1sc2c(c1C)C(c1ccc(CC[C@H]3CC[C@]4(CCCN(c5ncc(C(=O)N[C@H]6C(C)(C)[C@H](Oc7ccc(C#N)c(Cl)c7)C6(C)C)cn5)C4)C3)cc1)=N[C@H](Cc1ncco1)c1nnc(C)n1-2 [Compound I-251] | < 500 nM | < 500 nM | < 500 nM | > 3000 nM
Cc1sc2c(c1C)C(c1ccc(CC[C@@H]3CC[C@@]4(CCCN(c5ncc(C(=O)N[C@H]6C(C)(C)[C@H](Oc7ccc(C#N)c(Cl)c7)C6(C)C)cn5)C4)C3)cc1)=N[C@H](Cc1ncco1)c1nnc(C)n1-2 [Compound I-252] | > 3000 nM | < 500 nM | < 500 nM | > 3000 nM
Cc1sc2c(c1C)C(c1ccc(O[C@H]3CCCN(c4ncc(C(=O)N[C@H]5C(C)(C)[C@H](Oc6ccc(C#N)c(Cl)c6)C5(C)C)cn4)C3)cc1)=N[C@@H](Cc1ncco1)c1nnc(C)n1-2 [Compound I-253] | < 500 nM | 500 to 1500 nM | < 500 nM | < 500 nM
Cc1sc2c(c1C)C(c1ccc(OC[C@@H]3CCCN(c4ncc(C(=O)N[C@H]5C(C)(C)[C@H](Oc6ccc(C#N)c(Cl)c6)C5(C)C)cn4)C3)cc1)=N[C@@H](Cc1ncco1)c1nnc(C)n1-2 [Compound I-254] | < 500 nM | < 500 nM | < 500 nM | < 500 nM
Cc1sc2c(c1C)C(c1ccc(OC[C@H]3CCCN(c4ncc(C(=O)N[C@H]5C(C)(C)[C@H](Oc6ccc(C#N)c(Cl)c6)C5(C)C)cn4)C3)cc1)=N[C@@H](Cc1ncco1)c1nnc(C)n1-2 [Compound I-255] | < 500 nM | < 500 nM | < 500 nM | < 500 nM
Cc1sc2c(c1C)C(c1ccc(C(=O)N3CC[C@@]4(CCCN(c5ncc(C(=O)N[C@H]6C(C)(C)[C@H](Oc7ccc(C#N)c(Cl)c7)C6(C)C)cn5)C4)C3)cc1)=N[C@@H](Cc1ncco1)c1nnc(C)n1-2 [Compound I-256] | > 3000 nM | > 3000 nM | > 3000 nM | > 3000 nM
Cc1sc2c(c1C)C(c1ccc(C(=O)N3CC[C@@]4(CCCN(c5ncc(C(=O)N[C@H]6C(C)(C)[C@H](Oc7ccc(C#N)c(Cl)c7)C6(C)C)cn5)C4)C3)cc1)=N[C@H](Cc1ncco1)c1nnc(C)n1-2 [Compound I-257] | > 3000 nM | 1500 to 3000 nM | < 500 nM | > 3000 nM
Cc1sc2c(c1C)C(c1ccc(C(=O)N3CC[C@]4(CCCN(c5ncc(C(=O)N[C@H]6C(C)(C)[C@H](Oc7ccc(C#N)c(Cl)c7)C6(C)C)cn5)C4)C3)cc1)=N[C@@H](Cc1ncco1)c1nnc(C)n1-2 [Compound I-258] | > 3000 nM | 1500 to 3000 nM | < 500 nM | > 3000 nM
Cc1sc2c(c1C)C(c1ccc(C(=O)N3CC[C@]4(CCCN(c5ncc(C(=O)N[C@H]6C(C)(C)[C@H](Oc7ccc(C#N)c(Cl)c7)C6(C)C)cn5)C4)C3)cc1)=N[C@H](Cc1ncco1)c1nnc(C)n1-2 [Compound I-259] | 1500 to 3000 nM | 500 to 1500 nM | < 500 nM | > 3000 nM
Cc1sc2c(c1C)C(c1ccc(O[C@@H]3CCCN(c4ncc(C(=O)N[C@H]5C(C)(C)[C@H](Oc6ccc(C#N)c(Cl)c6)C5(C)C)cn4)C3)cc1)=N[C@@H](Cc1ncco1)c1nnc(C)n1-2 [Compound I-260] | < 500 nM | < 500 nM | < 500 nM | 1500 to 3000 nM
Cc1sc2c(c1C)C(c1ccc(OC3CCN(c4ncc(C(=O)N[C@H]5C(C)(C)[C@H](Oc6ccc(C#N)c(Cl)c6)C5(C)C)cn4)CC3)cc1)=N[C@@H](C)c1nnc(C)n1-2 [Compound I-261] | 500 to 1500 nM | 500 to 1500 nM | < 500 nM | 1500 to 3000 nM

The next lines start with results.

GI50 [1] | GI50 [2] | SMILES | GI50 [3] | GI50 [4]
> 3000 nM | > 3000 nM | Cc1sc2c(c1C)C(c1ccc(OC3CC4(CCN(c5ncc(C(=O)N[C@H]6C(C)(C)[C@H](Oc7ccc(C#N)c(Cl)c7)C6(C)C)cn5)CC4)C3)cc1)=N[C@@](C)(C(C)c1ncco1)c1nnc(C)n1-2 (stereo partly shown) [Compound I-262] | < 500 nM | > 3000 nM
< 500 nM | < 500 nM | Cc1sc2c(c1C)C(c1ccc(CNC(=O)C3CCN(c4ncc(C(=O)N[C@H]5C(C)(C)[C@H](Oc6ccc(C#N)c(Cl)c6)C5(C)C)cn4)CC3)cc1)=N[C@@H](Cc1ncco1)c1nnc(C)n1-2 [Compound I-263] | < 500 nM | 1500 to 3000 nM
< 500 nM | < 500 nM | Cc1sc2c(c1C)C(c1ccc(CNC(=O)[C@H]3CCCN(c4ncc(C(=O)N[C@H]5C(C)(C)[C@H](Oc6ccc(C#N)c(Cl)c6)C5(C)C)cn4)C3)cc1)=N[C@@H](Cc1ncco1)c1nnc(C)n1-2 [Compound I-264] | < 500 nM | < 500 nM
< 500 nM | < 500 nM | Cc1sc2c(c1C)C(c1ccc(CNC(=O)[C@@H]3CCCN(c4ncc(C(=O)N[C@H]5C(C)(C)[C@H](Oc6ccc(C#N)c(Cl)c6)C5(C)C)cn4)C3)cc1)=N[C@@H](Cc1ncco1)c1nnc(C)n1-2 [Compound I-265] | < 500 nM | 1500 to 3000 nM
< 500 nM | 500 to 1500 nM | Cc1sc2c(c1C)C(c1ccc(CNC(=O)CN(C)c3ncc(C(=O)N[C@H]4C(C)(C)[C@H](Oc5ccc(C#N)c(Cl)c5)C4(C)C)cn3)cc1)=N[C@@H](Cc1ncco1)c1nnc(C)n1-2 [Compound I-266] | < 500 nM | > 3000 nM
1500 to 3000 nM | 500 to 1500 nM | Cc1sc2c(c1C)C(c1ccc(C#C[C@H]3C[C@@]4(CCCN(c5ncc(C(=O)N[C@H]6C(C)(C)[C@H](Oc7ccc(C#N)c(Cl)c7)C6(C)C)cn5)C4)C3)cc1)=N[C@@H](Cc1ncco1)c1nnc(C)n1-2 [Compound I-268] | < 500 nM | > 3000 nM
1500 to 3000 nM | 500 to 1500 nM | Cc1sc2c(c1C)C(c1ccc(C#C[C@H]3C[C@]4(CCCN(c5ncc(C(=O)N[C@H]6C(C)(C)[C@H](Oc7ccc(C#N)c(Cl)c7)C6(C)C)cn5)C4)C3)cc1)=N[C@@H](Cc1ncco1)c1nnc(C)n1-2 [Compound I-269] | < 500 nM | > 3000 nM
< 500 nM | < 500 nM | Cc1sc2c(c1C)C(c1ccc(CCN3CC4(CCCN(c5ncc(C(=O)N[C@H]6C(C)(C)[C@H](Oc7ccc(C#N)c(Cl)c7)C6(C)C)cn5)C4)C3)cc1)=N[C@@H](Cc1ncco1)c1nnc(C)n1-2 [Compound I-272] | < 500 nM | 500 to 1500 nM
> 3000 nM | > 3000 nM | Cc1sc2c(c1C)C(c1ccc(OC3CC4(CCN(c5ncc(C(=O)N[C@H]6C(C)(C)[C@H](Oc7ccc(C#N)c(Cl)c7)C6(C)C)cn5)CC4)C3)cc1)=N[C@](C)(C(C)c1ncco1)c1nnc(C)n1-2 (stereo partly shown) [Compound I-273] | < 500 nM | > 3000 nM
> 3000 nM | 500 to 1500 nM | Cc1sc2c(c1C)C(c1ccc(NCC(=O)N3CCC(c4ncc(C(=O)N[C@H]5C(C)(C)[C@H](Oc6ccc(C#N)c(Cl)c6)C5(C)C)cn4)CC3)cc1)=N[C@@H](Cc1ncco1)c1nnc(C)n1-2 [Compound I-274] | < 500 nM | > 3000 nM
< 500 nM | < 500 nM | Cc1sc2c(c1C)C(c1ccc(NCC(=O)N3CCC(c4ncc(C(=O)N[C@H]5C(C)(C)[C@H](Oc6ccc(C#N)c(Cl)c6)C5(C)C)cn4)CC3)cc1)=N[C@H](Cc1ncco1)c1nnc(C)n1-2 [Compound I-275] | < 500 nM | < 500 nM
1500 to 3000 nM | > 3000 nM | Cc1sc2c(c1C)C(c1ccc(N3CCC(CNC(=O)c4ncc(C(=O)N[C@H]5C(C)(C)[C@H](Oc6ccc(C#N)c(Cl)c6)C5(C)C)cn4)CC3)cc1)C[C@@H](Cc1ncco1)c1nnc(C)n1-2 (stereo partly shown) [Compound I-276] | > 3000 nM | > 3000 nM
